Assay results published in ChEMBL document CHEMBL1125778, “Development of a small RGD peptide fibrinogen receptor antagonist with potent antiaggregatory activity in vitro” (J Med Chem, 1991).
Where a SMILES comes first, the peptide text is derived from it. Bridges are numbered along the chain shown (N, C = ends). [ ]: non-standard residue; d: D form. NMeR = CN[C@@H](CCCNC(=N)N)C(=O)O; Pen = CC(C)(S)[C@H](N)C(=O)O

target: Integrin alpha-IIb/beta-3 (Homo sapiens, UniProt P05106+P08514); assay: Inhibition of 125[I] Fibrinogen binding to isolated purified human fibrinogen receptor; format: protein-complex assay; conditions: not given
Sequence (P05106 27-788 limits assumed): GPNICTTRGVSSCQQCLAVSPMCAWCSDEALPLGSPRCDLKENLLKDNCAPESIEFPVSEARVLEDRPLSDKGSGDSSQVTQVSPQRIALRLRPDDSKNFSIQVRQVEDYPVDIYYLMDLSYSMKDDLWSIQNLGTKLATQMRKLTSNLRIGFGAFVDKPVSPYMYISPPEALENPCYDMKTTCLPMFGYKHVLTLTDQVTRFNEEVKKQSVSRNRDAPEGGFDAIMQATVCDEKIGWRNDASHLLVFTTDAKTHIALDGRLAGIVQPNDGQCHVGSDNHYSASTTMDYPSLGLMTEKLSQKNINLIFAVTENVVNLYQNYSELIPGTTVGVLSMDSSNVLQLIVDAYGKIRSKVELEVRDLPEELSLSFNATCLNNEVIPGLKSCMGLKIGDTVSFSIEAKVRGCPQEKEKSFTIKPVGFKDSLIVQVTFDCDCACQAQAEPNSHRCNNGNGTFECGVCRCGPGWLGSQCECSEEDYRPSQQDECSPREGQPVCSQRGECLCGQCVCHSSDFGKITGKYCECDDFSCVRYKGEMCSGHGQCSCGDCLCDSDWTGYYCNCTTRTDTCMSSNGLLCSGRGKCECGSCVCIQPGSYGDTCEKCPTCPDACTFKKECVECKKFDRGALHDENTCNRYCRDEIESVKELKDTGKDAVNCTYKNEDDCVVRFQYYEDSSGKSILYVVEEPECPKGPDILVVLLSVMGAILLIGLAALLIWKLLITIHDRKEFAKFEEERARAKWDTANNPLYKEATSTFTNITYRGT
Sequence (P08514 32-887 limits assumed): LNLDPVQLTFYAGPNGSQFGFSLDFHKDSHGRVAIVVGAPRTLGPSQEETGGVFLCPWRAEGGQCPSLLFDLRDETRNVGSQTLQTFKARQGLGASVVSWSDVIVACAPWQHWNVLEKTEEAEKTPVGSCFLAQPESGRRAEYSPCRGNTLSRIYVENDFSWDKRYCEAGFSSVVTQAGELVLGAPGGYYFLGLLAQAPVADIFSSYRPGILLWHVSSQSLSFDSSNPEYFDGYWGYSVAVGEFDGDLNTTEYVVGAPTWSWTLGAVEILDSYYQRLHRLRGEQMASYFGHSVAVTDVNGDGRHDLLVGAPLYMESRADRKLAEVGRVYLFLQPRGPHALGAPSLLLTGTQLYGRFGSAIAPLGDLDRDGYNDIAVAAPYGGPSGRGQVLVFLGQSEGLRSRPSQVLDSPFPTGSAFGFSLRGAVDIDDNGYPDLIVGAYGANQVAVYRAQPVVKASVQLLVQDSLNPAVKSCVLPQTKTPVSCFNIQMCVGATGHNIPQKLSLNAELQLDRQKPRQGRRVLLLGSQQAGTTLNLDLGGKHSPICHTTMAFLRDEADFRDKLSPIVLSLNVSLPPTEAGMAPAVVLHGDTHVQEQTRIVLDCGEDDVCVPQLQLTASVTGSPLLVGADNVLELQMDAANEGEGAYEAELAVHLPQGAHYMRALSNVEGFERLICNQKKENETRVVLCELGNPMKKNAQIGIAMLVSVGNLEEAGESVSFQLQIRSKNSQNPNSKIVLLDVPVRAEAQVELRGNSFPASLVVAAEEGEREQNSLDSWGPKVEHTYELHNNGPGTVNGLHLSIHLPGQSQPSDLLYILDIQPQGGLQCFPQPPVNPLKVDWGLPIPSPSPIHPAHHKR
Sequence (P08514 891-1039 limits assumed): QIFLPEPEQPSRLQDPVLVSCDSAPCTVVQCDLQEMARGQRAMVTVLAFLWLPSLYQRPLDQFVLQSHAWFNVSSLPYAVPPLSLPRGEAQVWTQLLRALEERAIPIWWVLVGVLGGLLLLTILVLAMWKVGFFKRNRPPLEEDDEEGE

In order of rising Ki:
1. CC(=O)N[C@H]1CSSC(C)(C)[C@@H](C(N)=O)NC(=O)[C@H](CC(=O)O)NC(=O)CNC(=O)[C@H](CCCN=C(N)N)N(C)C1=O (Ac-C[NMeR]GD[Pen]-NH2; disulfide 1-5)  58 nM
2. CC(=O)N[C@@H]1CSSC(C)(C)[C@H](C(N)=O)NC(=O)[C@H](CC(=O)O)NC(=O)CNC(=O)[C@@H](CCCNC(=N)N)NC1=O  720 nM
3. CC(=O)N[C@H]1CSSC[C@@H](C(N)=O)NC(=O)[C@H](CC(=O)O)NC(=O)CNC(=O)[C@H](CCCN=C(N)N)NC1=O  780 nM
4. CC(=O)N[C@H]1CSSC[C@@H](C(N)=O)NC(=O)[C@H](CO)NC(=O)[C@H](CC(=O)O)NC(=O)CNC(=O)[C@H](CCCN=C(N)N)NC1=O (Ac-CRGDSC-NH2; disulfide 1-6)  5300 nM
5. Ac-HHLGGAKQAGDV-OH  14500 nM

test system: Integrin alpha-IIb/beta-3 (Canis familiaris); assay: Inhibition of canine platelet-rich plasma induced by ADP; set-up: concentration or dose not given beside the values; conditions: Canis lupus familiaris, concentration not given here

In order of falling inhibition:
1. CC(=O)N[C@H]1C(=O)N(C)[C@@H](CCCN=C(N)N)C(=O)NCC(=O)N[C@@H](CC(=O)O)C(=O)N[C@@H](C(N)=O)C(C)(C)SSC1(C)C  100%
2. CC(=O)N[C@@H]1CSSC[C@@H](C(N)=O)NC(=O)[C@H](CC(=O)O)NC(=O)CNC(=O)[C@H](CCCN=C(N)N)NC(=O)CNC1=O  100%
3. CC(=O)N[C@@H](Cc1c[nH]cn1)C(=O)N[C@@H](Cc1c[nH]cn1)C(=O)N[C@@H](CC(C)C)C(=O)NCC(=O)NCC(=O)N[C@@H](C)C(=O)N[C@@H](CCCCN)C(=O)N[C@H]1CSSC(C)(C)[C@H](C(N)=O)NC(=O)[C@H](CC(=O)O)NC(=O)CNC(=O)[C@H](CCCN=C(N)N)NC1=O  100%
4. CC(=O)N[C@@H]1CSSC(C)(C)[C@H](C(N)=O)NC(=O)[C@H](CC(=O)O)NC(=O)CNC(=O)[C@H](CCCN=C(N)N)NC(=O)CNC1=O  100%
5. CC(=O)N[C@H]1C(=O)N[C@@H](CCCN=C(N)N)C(=O)NCC(=O)N[C@@H](CC(=O)O)C(=O)N[C@H](C(N)=O)CSSC1(C)C  100%
6. CC(=O)N[C@@H](CCCN=C(N)N)C(=O)NCC(=O)N[C@@H](CC(=O)O)C(=O)N[C@@H](Cc1ccc(O)cc1)C(N)=O (Ac-RGDY-NH2)  98%
7. CC(=O)N[C@@H]1CSSC(C)(C)[C@H](C(N)=O)NC(=O)[C@@H](CC(=O)O)NC(=O)CN(C)C(=O)[C@@H](CCCN=C(N)N)NC1=O  57%
8. CC(=O)N[C@@H]1CSSC[C@H](C(N)=O)NC(=O)[C@@H](CC(=O)O)NC(=O)CNC(=O)[C@@H](CCCN=C(N)N)NC1=O  55%
